Data on two molecules can be found in patent US20150351394A1, “BACTERICIDAL COMPOSITION CONTAINING FLUAZINAM” (Shenzhen Noposion Agrochemicals Co., Ltd., priority 2014, published 2015).

Experiment [1] has as its system pepper phytophthora capsici. As to the kind of experiment: Indoor toxicity test on potted pepper seedlings inoculated with pepper phytophthora capsici (NY/T1156.11-2008). It is filed as in vivo. The following applies: single active compound, survey 8 days after inoculation. The method, then:
The pepper phytophthora capsici is acted as test object.
Test methods: referring to the “Republic of China agricultural industry standard NY/T1156.11-2008”, selecting growing consensus potted pepper seedlings, selecting five pots per test object with respective number for use, spraying five milliliters for each pot by a Potter spray tower in a pressure of 50 PSI. The test results are shown in Tables 1 and 2 and each test pesticide is provided with five concentration gradients. After 24 hours, five millimeters pepper phytophthora capsici mycelium blocks are inoculated into the objects. Pepper seedlings with an equal amount of water spraying are selected as the blank control. After inoculation, pepper seedlings are shifted into light moisturizer cabinets for culture. After 8 days, in accordance with grading standards of incidence of pepper phytophthora blights, the disease indexes are surveyed and the control effects are calculated.
Capsici disease classification criteria:
0 level: no lesion on the leaves;
1 level: lesion area of the total leaf area is 5% or less;
3 level: lesion area of the total leaf area is from 6% to 10%;
5 level: lesion area of the total leaf area is from 11% to 25%;
7 level: lesion area of the total leaf area is from 25% to 50%;
9 level: lesion area of the total leaf area is 50% or more.
Disease index=[Σ(leaf quantity in each level×respective level number)×100]/(Total quantity of tested leaves×9).
Control effect (%)=[(blank disease index−treated disease index)]×100]/blank disease index.
Expected effect of a mixture of the active ingredients (i.e., control effect in theory, %) is determined by using Colby's formula and is compared with observed effect:
Colby formula: E=X+Y−X*Y/100
E: expected effect of the composition provided that active ingredient A thereof is in a concentration of a value, and active ingredient B is in a concentration of b value.
X: expected effect provided that usage dose of the active ingredient A is a value.
Y: expected effect provided that usage dose of the active ingredient B is b value.
It is testified that the mixture has a synergistic effect when the actual control effect observed exceeds the expected control effect.

For experiment [2], the system named is pepper phytophthora blight. As to the kind of experiment: Field efficacy experiment against the pepper phytophthora blight (Haikou, Hainan). The class given is in vivo, phytophthora capsici. The following applies: two foliar sprays 7 days apart, field peppers. The method, then:
Test site is Haikou in Hainan. […] Four plots are treated per pesticide and replicates. Each plot has surface area of 20 square meters. The pesticides are applied in the early occurrence of disease and are uniformly sprayed onto the leaves until dripping for the first time. Clean water is used as the blank control. Seven days later, the pesticides are applied for the second time. Disease incidence of the pepper phytophthora blights to the peppers prior to the first pesticide application and that of after 15 days from the second pesticide application are surveyed. Each plot uses a five-point sampling means, surveying two per point, and recording the number of diseased plants, dead plants and apparent withered plants. Disease index and control effect are calculated for each treatment.
Classification method (according to symptom types):
0 level: health, no disease;
1 level: lesions happen only to overground leaves and fruitst;
3 level: brown rot spots happen to overground stems and branches;
5 level: brown rot spots happen to the stem base;
7 level: brown rot spots happen to overground stems, branches and stem base, and some dead branches;
9 level: entire plant dead.
Efficacy calculation method:
Disease index=[Σ(plant quantity in each level×respective level number)×100]/(Total quantity of tested plants×9). […]

As for `C=CCc1ccc(O)c(OC)c1` [Eugenol, 4-allyl-2-methoxy-phenol], the “Actual effect (control effect)” value in experiment [1] (1 ppm in spraying droplet) is listed as 6.2%; in experiment [1] (10 ppm in spraying droplet) it was 17.6%; in experiment [1] (30 ppm in spraying droplet) it was 46.3%; in experiment [1] (50 ppm in spraying droplet), 63.8%; in experiment [1] (100 ppm in spraying droplet), 79.5%. The Control effects in experiment [2] (20 g a.i./ha) came out at 71.6%.
Take `O=[N+]([O-])c1cc(C(F)(F)F)c(Cl)c([N+](=O)[O-])c1Nc1ncc(C(F)(F)F)cc1Cl` [Fluazinam, 3-chloro-N-(3-chloro-5-trifluoromethyl-2-pyridyl)-α,α,α-trifluor-2,6-dinitro-p-toluidine]: the “Actual effect (control effect)” value in experiment [1] (1 ppm in spraying droplet) stood at 11.4%; in experiment [1] (10 ppm in spraying droplet), 31.2%; in experiment [1] (20 ppm in spraying droplet) it was 52.9%; in experiment [1] (50 ppm in spraying droplet) it was 71.4%; in experiment [1] (100 ppm in spraying droplet), 87.1%. In experiment [2] (250 g a.i./ha), this molecule returned a Control effects of 78.7%.
